Tests used:
KP4 = assay: Cell viability assay (CellTiter Glo), pancreatic ductal adenocarcinoma KP4; type: cell-based, human; conditions: Homo sapiens, KP-4, 96 h, pancreatic cancer cell line KP4, 96 hours, CellTiter Glo; read-out: IC50 μM KP4
Description: (§1) Cell viability assay was performed to assess the potency of the compounds in human cancer cell lines KP4 (pancreatic ductal adenocarcinoma), MiaPaCa-2 (pancreatic carcinoma), AsPC-1 (pancreatic adenocarcinoma, ascites), 143B (osteosarcoma), and SJSA-1 (osteosarcoma). Selected compounds were also assayed in a human breast epithelial cell line MCF-10A, a nontumorigenic cell line as a control to assess differential activity. Cells at a density of 500-5,000 cells/well were seeded in 96-well plates and incubated at 37° C. overnight. A series of 9 different concentrations of compound stocks (500×) were created by 3-fold serial dilution in DMSO. These compounds were further diluted in culture media and then added to cells so that the final DMSO concentration was equal to 0.25% or less. After 96 hours of incubation, 50 μL of CellTiter Glo reagent (Promega) was added to each well and luminescence was measured after 10 minutes using EnVision (PerkinElmer). Compounds titrated from top concentration of up to 30 μM. The select compounds were tested initially from 30 μM as the top concentration in duplicates (range of 4.6 nM-30 μM). […] Luminescence from cells treated with DMSO alone was set as Max and % of inhibition was calculated as follows: Inhibition %=(Max-Sample value)/Max*100. Data was analyzed using XL-fit software (ID Business Solutions Ltd.). IC50, relative IC50, or % of top inhibition was calculated.
as §1, with “in” for “in human”, “line” for “lines”, “adenocarcinoma).” for “adenocarcinoma), MiaPaCa-2 (pancreatic carcinoma), AsPC-1 (pancreatic adenocarcinoma, ascites), 143B (osteosarcoma), and SJSA-1 (osteosarcoma). Selected compounds were also assayed in a human breast epithelial cell line MCF-10A, a nontumorigenic cell line as a control to assess differential activity.”, “1,000-10,000” for “500-5,000”, “All” for “Compounds titrated from top concentration of up to 30 μM. The select”
(§2) The results of the assay on stability in blood and IC50 values for pancreatic cancer cell line KP4 are given below in Table 24.

[1] = Whole blood stability, human; type: in vitro ADME
Description: as §2

[2] = Whole blood stability, mouse; type: in vitro ADME
Description: as §2

| IC50 (KP4) [µM] | Whole Blood Stability % Remaining at 37° C. Human ([1]; 0 min) [%] | Whole Blood Stability % Remaining at 37° C. Human ([1]; 30 min) [%] | Whole Blood Stability % Remaining at 37° C. Human ([1]; 60 min) [%] | Whole Blood Stability % Remaining at 37° C. Mouse ([2]; 0 min) [%] | Whole Blood Stability % Remaining at 37° C. Mouse ([2]; 30 min) [%] | Whole Blood Stability % Remaining at 37° C. Mouse ([2]; 60 min) [%] | Structure (SMILES) |
| --- | --- | --- | --- | --- | --- | --- | --- |
| 0.01 to 0.1 | 100.0 | 58.5 | 39.4 | 100.0 | 0.1 | 0.1 | COC(=O)c1ccc([C@H]2c3[nH]c4ccccc4c3C[C@H](C(=O)OC(C)(C)C)N2C(=O)CCl)cc1 [Compound 2] |
| 0.01 to 0.1 | 100.0 | 39.3 | 20.5 | 100.0 | 32.9 | 14.8 | COC(=O)[C@H]1Cc2c([nH]c3ccccc23)[C@H](c2ccc(S(=O)(=O)N3CCC(O)CC3)cc2)N1C(=O)CCl [Compound 35] |
| 0.01 to 0.1 | 100.0 | 48.4 | 18.3 | 100.0 | 63.8 | 29.3 | CN(C)C(=O)[C@H]1Cc2c([nH]c3ccccc23)[C@H](c2ccc(S(=O)(=O)C3CCCC3)cc2)N1C(=O)CCl [Compound 69] |
| < 0.01 | 100.0 | 47.6 | 34.5 | 100.0 | 43.1 | 21.7 | COC(=O)[C@H]1Cc2c([nH]c3ccccc23)[C@H](c2ccc(S(=O)(=O)NCC3CC3)cc2)N1C(=O)CCl [Compound 82] |
| < 0.01 | 100.0 | 68.3 | 51.7 | 100.0 | 127.4 | 111.0 | C[C@H]1Cc2c([nH]c3ccccc23)[C@H](c2ccc(C3CCCCC3)cc2)N1C(=O)CCl [Compound 110] |
| < 0.01 | 100.0 | 58.2 | 29.0 | 100.0 | 0.0 | 0.0 | C=CCOC(=O)c1ccc([C@H]2c3[nH]c4ccccc4c3C[C@H](C(=O)OC)N2C(=O)CCl)cc1 [Compound 74] |
| > 1 | 100.0 | 35.0 | 13.2 | 100.0 | 4.5 | 0.0 | CC(C)(C)OC(=O)c1ccc([C@H]2c3[nH]c4ccccc4c3C[C@H](CO)N2C(=O)CCl)cc1 [Example 63a] |
| < 0.01 | 100.0 | 68.1 | 41.5 | 100.0 | 1.8 | 0.9 | COC(=O)[C@H]1Cc2c([nH]c3ccccc23)[C@H](c2ccc(C(=O)OCC3CC3)cc2)N1C(=O)CCl [Compound 75] |
| 0.1 to 0.5 | 100.0 | 66.3 | 44.9 | 100.0 | 0.0 | 0.0 | COC(=O)c1ccc([C@H]2c3[nH]c4ccc(Cl)cc4c3C[C@H](C(=O)OC)N2C(=O)CCl)cc1 [Compound 93] |
| 0.1 to 0.5 | 100.0 | 79.2 | 62.0 | 100.0 | 82.6 | 67.1 | C[C@H]1Cc2c([nH]c3ccccc23)[C@H](c2ccc(NCC3CC3)cc2)N1C(=O)CCl [Compound 116] |
| < 0.01 | 100.0 | 78.3 | 49.6 | 100.0 | 0.0 | 0.0 | COC(=O)[C@H]1Cc2c([nH]c3ccccc23)[C@H](c2ccc(C(=O)OCC3CCCC3)cc2)N1C(=O)CCl [Compound 86] |
| < 0.01 | 100.0 | 84.8 | 91.2 | 100.0 | 0.0 | 0.0 | COC(=O)[C@H]1Cc2c([nH]c3ccccc23)[C@H](c2ccc(C(=O)OCC3CCCCC3)cc2)N1C(=O)CCl [Compound 89] |
| < 0.01 | 100.0 | 67.3 | 49.2 | 100.0 | 61.9 | 51.1 | COC(=O)[C@H]1Cc2c([nH]c3ccccc23)[C@H](c2ccc(N[C@]34CC5C[C@H](C[C@H](C5)C3)C4)cc2)N1C(=O)CCl [Compound 29] |
| < 0.01 | 100.0 | 73.4 | 51.6 | 100.0 | 78.3 | 68.9 | COC(=O)[C@H]1Cc2c([nH]c3ccccc23)[C@H](c2ccc(C(=O)N[C@]34CC5C[C@H](C[C@H](C5)C3)C4)cc2)N1C(=O)CCl [Compound 28, Methyl-(1S,3R)-1-(4-(((3R,5R,7R)-adamantan-1-yl)carbamoyl)phenyl)-2-(2-chloroacetyl)-2,3,4,9-tetrahydro-1H-pyrido[3,4-b]indole-3-carboxylate] |
| 0.5 to 1 | 100.0 | 55.1 | 36.1 | 100.0 | 48.5 | 1.1 | COC(=O)c1ccc([C@@H]2c3c(c4ccccc4n3C)C[C@H](C(=O)OC)N2C(=O)CCl)cc1 [Compound 73] |
| > 1 | 100.0 | 64.4 | 40.5 | 100.0 | 89.9 | 67.0 | CN(C)C(=O)c1ccc([C@H]2c3[nH]c4ccccc4c3C[C@H](C(N)=O)N2C(=O)CCl)cc1 [Compound 58] |
| 0.1 to 0.5 | 100.0 | 46.0 | 23.8 | 100.0 | 63.3 | 36.6 | CN(C)C(=O)[C@H]1Cc2c([nH]c3ccccc23)[C@H](c2ccc(S(=O)(=O)C3CC3)cc2)N1C(=O)CCl [Compound 70] |

| Structure (SMILES) | IC50 (KP4) [µM] | Whole Blood Stability % Remaining at 37° C. Human ([1]; 0 min) [%] | Whole Blood Stability % Remaining at 37° C. Human ([1]; 30 min) [%] | Whole Blood Stability % Remaining at 37° C. Human ([1]; 60 min) [%] | Whole Blood Stability % Remaining at 37° C. Mouse ([2]; 0 min) [%] | Whole Blood Stability % Remaining at 37° C. Mouse ([2]; 30 min) [%] | Whole Blood Stability % Remaining at 37° C. Mouse ([2]; 60 min) [%] |
| --- | --- | --- | --- | --- | --- | --- | --- |
| CN(C)C(=O)[C@H]1Cc2c([nH]c3ccccc23)[C@H](c2ccc([Si](C)(C)C)cc2)N1C(=O)CCl [Compound 67] | 0.01 to 0.1 | 100.0 | 56.8 | 37.3 | 100.0 | 38.7 | 13.3 |
